Measurements as given in patent US4914091A, “Esters of cephalosporin derivitives” (American Cyanamid Company, priority 1984, dated 1990).
Where two headings read alike, the source gives them in different places.

Assays:
[1] = system: Klebsiella pneumoniae; test: In vivo activity against lethal intraperitoneal Klebsiella pneumoniae infection in mice, single oral or subcutaneous dose; design: species or system Klebsiella pneumoniae (infection in Charles River CD-1 mice); conditions: CD-1 mice
Excerpt: Other representative compounds of the present invention were similarly tested against a lethal infection of Klebsiella pneumoniae in mice. Charles River CD-1 mice, each weighing about 20 g, were infected intraperitoneally with a lethal dose of Klebsiella pneumoniae. The median effective doses (ED50) in mg/kg were derived from the pooled data of three separate tests (including two range finding tests). The control, 7β-[2-(2-amino thiazol-4-yl)-(Z)-2-methoximinoacetamido]-3-[(1,2,3-thiadiazol-5-yl)-thiomethyl]ceph-3-em-4-carboxylic acid, provides a basis for comparison. All compounds were administered by single subcutaneous dose and single oral dose.

[2] = system: Escherichia coli No. 311; test: In vivo activity against lethal intraperitoneal Escherichia coli No. 311 infection in mice, single oral or subcutaneous dose; design: species or system Escherichia coli (infection in Charles River CD-1 mice); conditions: E. coli No. 311, CD-1 mice; for ED50: Escherichia coli, pooled data of three tests (cefaclor: estimated from two separate tests)
Experimental: To establish the pro-drug activity of, for example, the pivaloyloxymethyl ester of 7β-[2-(2-aminothiazol-4-yl)-(Z)-2-methoximinoacetamido]-3-[(1,2,3-thiadiasol-5-yl)-thiomethyl]ceph-3-em-4-carboxylic acid, the unesterified carboxylic acid and cefaclor (as control) were administered by single subcutaneous dose and single oral dose to separate groups of Charles River CD-1 mice, each weighing about 20 g, which mice had been infected intraperitoneally with a lethal dose of Escherichia coli No. 311. The median effective doses (ED50) in mg/kg were derived from the pooled data of three separate tests (including two range finding tests. The results of this testing appear in Table I.

[3] = single oral dose, pooled data of three tests, (95% Conf. Lim.), read-out: ED50, Single Oral Dose
[4] = sc, single subcutaneous dose, pooled data of three tests, (95% Conf. Lim.), read-out: ED50, Single Subcut. Dose
[5] = sc, single subcutaneous dose, read-out: ED50, Single Subcut. Dose
[6] = single oral dose, read-out: ED50, Single Oral Dose

Molecule	Ratio Oral ED50 / Subcutaneous ED50 [1]	ED50 [1, 3]	ED50 [1, 4]	Ratio Oral ED50 / Subcutaneous ED50 [2]	ED50 [2, 5]	ED50 [2, 6]	ED50, Single Oral Dose ([1]; single oral dose, pooled data of three tests, (95% Conf. Lim.))	ED50, Single Subcut. Dose ([1]; single subcutaneous dose, pooled data of three tests, (95% Conf. Lim.))
CO/N=C(\C(=O)N[C@@H]1C(=O)N2C(C(=O)OC(C)OC(C)=O)=C(CSc3cnns3)CS[C@H]12)c1csc(N)n1 (stereo partly drawn) [Acetoxyethyl ester, Acetoxyethyl 7β-[2-(2-aminothiazol-4-yl)-(Z)-2-methoximinoacetamido]-3-[(1,2,3-thiadiazol-5-yl)-thiomethyl]ceph-3-em-4-carboxylate]	2	2 to 4 mg/kg	1 to 2 mg/kg	–	–	–	–	–
CO/N=C(\C(=O)N[C@@H]1C(=O)N2C(C(=O)OCOC(C)=O)=C(CSc3cnns3)CS[C@H]12)c1csc(N)n1 [Acetoxymethyl, Acetoxymethyl 7β-[2-(2-aminothiazol-4-yl)-(Z)-2-methoximinoacetamido]-3-[(1,2,3-thiadiazol-5-yl)thiomethyl]ceph-3-em-4-carboxylate]	8	8 to 16 mg/kg	1 to 2 mg/kg	–	–	–	–	–
CO/N=C(\C(=O)N[C@@H]1C(=O)N2C(C(=O)OCOC(=O)C34CC5CC(CC(C5)C3)C4)=C(CSc3cnns3)CS[C@H]12)c1csc(N)n1 [Adamantylcarbonyl-oxymethyl, Adamantane-1-carbonyloxymethyl-7β-[2-(2-aminothiazol-4-yl)-(Z)-2-methoximinoacetamido]-3-[(1,2,3-thiadiazol-5-yl)-thiomethyl]ceph-3-em-4-carboxylate]	2	2 to 4 mg/kg	1 to 2 mg/kg	–	–	–	–	–
N[C@@H](C(=O)N[C@@H]1C(=O)N2C(C(=O)O)=C(Cl)CS[C@H]12)c1ccccc1 [Cefaclor]	–	–	–	2.8	5.7 mg/kg	16 mg/kg	–	–
CCCCCCCCCCOCOC(=O)C1=C(CSc2cnns2)CS[C@@H]2[C@H](NC(=O)/C(=N\OC)c3csc(N)n3)C(=O)N12 [Declyoxymethyl ester, Decyloxymethyl 7β-[2-(2-aminothiazol-4-yl)-(Z)-2-methoximinoacetamido]-3-[(1,2,3-thiadiazol-5-yl)-thiomethyl]ceph-3-em-4-carboxylate]	4	8 to 16 mg/kg	2 to 4 mg/kg	–	–	–	–	–
CCOC(=O)OC(C)OC(=O)C1=C(CSc2cnns2)CS[C@@H]2[C@H](NC(=O)/C(=N\OC)c3csc(N)n3)C(=O)N12 (stereo partly drawn) [Ethoxycarbonyl-Ethoxyethyl ester]	2	1 to 2 mg/kg	0.5 to 1 mg/kg	–	–	–	–	–
COCOC(=O)C1=C(CSc2cnns2)CS[C@@H]2[C@H](NC(=O)/C(=N\OC)c3csc(N)n3)C(=O)N12 [Methoxymethyl ester, Methoxymethyl 7β-[2-(2-aminothiazol-4-yl)-(Z)-2-methoximinoacetamido]-3-[(1,2,3-thiadiazol-5-yl)-thiomethyl]ceph-3-em-4-carboxylate]	16	8 to 16 mg/kg	0.5 to 1 mg/kg	–	–	–	–	–
CCCCCCCCCCCCCC(=O)OCOC(=O)C1=C(CSc2cnns2)CS[C@@H]2[C@H](NC(=O)/C(=N\OC)c3csc(N)n3)C(=O)N12 [Myristoyloxymethyl ester, Myristoyloxymethyl 7β-[2-(2-aminothiazol-4-yl)-(Z)-2-methoximinoacetamido]-3-[(1,2,3-thiadiazol-5-yl)-thiomethyl]ceph-3-em-4-carboxylate]	16	8 to 16 mg/kg	0.5 to 1 mg/kg	–	–	–	–	–
CO/N=C(\C(=O)N[C@@H]1C(=O)N2C(C(=O)OC3OC(=O)c4ccccc43)=C(CSc3cnns3)CS[C@H]12)c1csc(N)n1 (stereo partly drawn) [Phthalidyl ester, Phthalidyl 7β-[2-(2-aminothiazol-4-yl)-(Z)-2-methoximinoacetamido]-3-[(1,2,3-thiadiazol-5-yl)-thiomethyl]ceph-3-em-4-carboxylate]	16	8 to 16 mg/kg	0.5 to 1 mg/kg	–	–	–	–	–
CO/N=C(\C(=O)N[C@@H]1C(=O)N2C(C(=O)OCOC(=O)C(C)(C)C)=C(CSc3cnns3)CS[C@H]12)c1csc(N)n1 [Pivaloyloxymethyl ester, Pivaloyloxymethyl 7β-[2-(2-aminothiazol-4-yl)-(Z)-2-methoximinoacetamido]-3-[(1,2,3-thiadiazol-5-yl)-thiomethyl]ceph-3-em-4-carboxylate]	–	–	–	3.8	0.53 mg/kg	2 mg/kg	–	–
CO/N=C(\C(=O)N[C@@H]1C(=O)N2C(C(=O)O)=C(CSc3cnns3)CS[C@H]12)c1csc(N)n1 [Unesterified acid, 7β-[2-(2-aminothiazol-4-yl)-(Z)-2-methoximinoacetamido]-3-[(1,2,3-thiadiazol-5-yl)-thiomethyl]ceph-3-em-4-carboxylic acid, reference compound]	16	8 to 16 mg/kg	0.5 to 1 mg/kg	28	0.26 mg/kg	7.2 mg/kg	–	–
CO/N=C(\C(=O)N[C@@H]1C(=O)N2C(C(=O)OCOC(=O)c3ccccc3)=C(CSc3cnns3)CS[C@H]12)c1csc(N)n1 [benzoyloxymethyl ester, Benzoyloxymethyl 7β-[2-(2-aminothiazol-4-yl)-(Z)-2-methoximinoacetamido]-3-[(1,2,3-thiadiazol-5-yl)-thiomethyl]ceph-3-em-4-carboxylate]	2	4 to 8 mg/kg	2 to 4 mg/kg	–	–	–	–	–
Methylthiomethyl 7β-[2-(2-aminothiazol-4-yl)-(Z)-2-methoximinoacetamido]-3-[(1,2,3-thiadiazol-5-yl)-thiomethyl]ceph-3-em and ceph-2-em-carboxylate [methylthiomethyl ester]	4	–	–	–	–	–	8 to 16 mg/kg	2 to 4 mg/kg
